Measurements reported in patent US12371453B2, “Polypeptide having antibacterial activity, composition for preventing or treating sepsis comprising same, and antibacterial composition” (priority 2019, dated 2025).
Values after ≈ are worked out from the molar mass of the structure shown. Square brackets hold non-standard residues; d marks the D form. Ends that are not written are not given here. Peptide text beside a SMILES is read from it.

Key:
[1] = LPS binding affinity by Isothermal Titration Calorimeter (ITC); design: species or system E. coli K1; conditions: for LPS binding affinity (in words): compared with FP1 (wild type, WT); for Kd: peptide binding to LPS, read-out: Kd (calculated by ITC)
Source text: FPT (ADK 44-54) is denoted by wild type (WT), and peptides in which a point mutation occurred at various sites in WT were manufactured (FP3, FP5, FP6, and FP9). To increase the interaction with LPS in a residue sequence of FP3, peptides were designed based on FP3- and LPS-binding models (FP12-NH2 and FP13-NH2), and peptides were designed by additionally introducing a non-natural amino acid and an amino acid isomer (allomeric D-type amino acid) (allD FP12-NH2, allD FP13-NH2, allD FP-13-9a, allD FP-13-9w, allD FP-13-9k, and allD FP13-NH2 (AcOH)). In addition, an N-terminus PEGylated peptide (PEG-alld FP13-NH2 (AcOH)) was additionally designed, synthesized, and provided by ANYGEN, Co. Ltd. The binding affinity between each of the provided peptides and lipopolysaccharide (LPS) was confirmed through measuring the binding affinity (Kd) using Isothermal Titration Calorimeter (ITC).
Specifically, a method of analyzing binding affinity (Kd) between a peptide and LPS is as follows.
Measurement was carried out using a Malvern MicroCal PEAQ-ITC cell instrument, and the following pretreatment was carried out to confirm interaction with LPS. The amount and morphology of a sample cell are 300 μL and coin-shaped, fixed-in-place, respectively; a syringe rotation rate was 1,200 rpm; and a temperature was 30° C., 35° C. or 25° C.
Before the experiment, LPS and the peptide were previously diluted with PBS, thereby preparing 2 mM LPS and 0.2 mM peptide. 300 μL of the peptide was added into cells in the ITC instrument, which had been washed, and 40 μL of LPS was put into a syringe. After measurement conditions for ITC (temperature, number of injections) were set, the syringe was inserted into the cell, and ITC measurement was started. When the measurement was completed, analysis is performed, and the Kd values of LPS and the peptide were calculated.

[2] = system: CR-Klebsiella pneumoniae; conditions: CR-
Description: (§1) The antibacterial activity was evaluated according to an antibacterial activity test method for measuring the minimum inhibitory concentration 50 (MIC50; the minimal concentration that kills 50% of bacteria).
(§2) More specifically, 100 μL of a medium was dispensed into each well of a 96-well plate, and in the first column, an antibiotic and a peptide in 200 μL of the medium were dispensed. 1/2 serial dilution was performed from columns 1 to 11 and five types of antibiotic-resistant bacteria (ESBL-resistant E. coli, carbapenem-resistant A. baumannii, carbapenem-resistant Klebsiella pneumoniae, carbapenem-resistant Pseudomonas aeruginosa, colistin-resistant Acinetobactor baumannii), which had been previously cultured, were diluted (OD600 nm value in dilution: approximately 0.0025) and dispensed into each well. The plate was incubated in a 37° C. incubator for 4 hours, and measured at OD600 nm.

[3] = system: Colistin resistant AB (Acinetobactor baumannii)
Description: as §1, §2

[4] = system: ESBL (E. coli); conditions: ESBL
Description: as §1, §2

[5] = system: Carbapenem resistant (CR)-Acinetobactor baumannii; test: organism not typed
Description: as §1, §2

[6] = system: E. coli; type: cell-based
[7] = system: A. baumannii; type: cell-based
[8] = Calcein dye leakage from liposome mimicking gram-negative bacterial cell membrane; type: biochemical; conditions: calcein-encapsulated liposome
Description: (§3) To study an action mechanism for FP12-NH2, FP13-NH2, allD FP12-NH2, and allD FP13-NH2 peptides, the disruption ability of the peptides against liposomes mimicking a bacterial cell membrane and a red blood cell membrane was measured.
(§4) EYPG is an abbreviation for egg yolk L-α-phosphatidyl-DL-glycerol, and EYPC is an abbreviation for egg yolk 1,2-diacyl-sn-glycero-3-phosphocholine. CH is an abbreviation for cholesterol. After dissolving the phospholipids composed according to the content of each component in chloroform, the chloroform was removed using a rotary evaporator, and lyophilization was performed overnight. Afterward, the dried lipid film was dissolved in a Tris-buffer solution, and calcein […]. After repeated freezing and thawing, the calcein-encapsulated liposome was manufactured using an extruder. Subsequently, after an excitation wavelength of a spectrofluorimeter (Shimadzu RF 5301 PC spectrofluorimeter, Japan) was set to 490 nm, and an emission wavelength was set to 520 nm, the peptide was administered to the liposome to measure relative dye leakage, provided that a 100% dye leakage was expressed as fluorescence intensity when 0.010% Triton-X100 was added.
(§5) The upper graphs of FIG. 3 show the % dye leakage for an EYPC/EYPG (7:3, w/w) liposome mimicking bacterial cells, encapsulating a fluorescent dye, calcein, by a peptide according to a peptide concentration. […] The lower graphs of FIG. 3 show the % dye leakage for an EYPC/CH (10:1, w/w) liposome, which is […] mimicking a human red blood, encapsulating a fluorescent dye, calcein, by a peptide according to a peptide concentration.

[9] = Calcein dye leakage from liposome mimicking human red blood cell membrane; type: biochemical; conditions: calcein-encapsulated liposome
Description: as §3, §4, §5

[10] = Calcein dye leakage from liposome mimicking gram-positive bacterial cell membrane; type: biochemical; conditions: calcein-encapsulated liposome
Description: To study the action mechanisms for FPT2-NH2, FPT3-NH2, allD FPT2-NH2, and allD FP13-NH2 peptides, the disruption ability of the peptides against a liposome mimicking a bacterial cell membrane was measured.

[11] = system: S. aureus
[12] = system: trypsin, protease K, and chymotrypsin; conditions: read out by antibacterial activity
[13] = In vivo toxicity, survival rate (Example 9); design: species or system ICR mice; conditions: mouse, ip, mice, intraperitoneal six times, survival for 72 hours
Description: To confirm the therapeutic and pharmaceutical effects of an acetate salt substitution of allD FP13-NH2, a septic animal model induced by intraperitoneally administering each of the Escherichia coli (standard strain and ESBL) strains or a normal mouse was treated with the peptide allD FP13-NH2 (AcOH). The antibiotic effect, the toxicity, and the inhibitory activity of […] cytokine IL-6 of the salt substitution with those of the same peptide at the end of trifluoroacetic acid (TFA) were compared.
Six-week-old female ICR mice (SPF mice, Samtako) with an average body weight of 25 g were used as experimental animals. The experimental animals were provided with sterile feed and water and bred with less than 10 mice per cage, and a day/night cycle was 12 hours.
To evaluate in vivo toxicity, the mice were divided into groups (n=5 or 6 per group) per experiment, and intraperitoneally treated six times with allD FP13-NH2 (TFA) and allD FP13-NH2 (AcOH) mixed with […]'S DEX solution (vehicle) at 0, 1, 2, 3, 4, or 5 hours, followed by observing a survival rate at intervals of 12 hours for 72 hours.

Compound	LPS binding affinity (in words) [1]	Kd [1]	MIC50, CR-Klebsiella pneumoniae [2]	MIC50, Colistin resistant AB [3]	MIC50, ESBL (E. coli) [4]	MIC50, Carbapenem resistant (CR)-Acinetobactor baumannii [5]	MIC50 [6]	MIC90 [6]	MIC50 [7]	MIC90 [7]	dye leakage, PC/PG (7:3, w/w) liposome mimicking a bacteria cell membrane [8]	dye leakage, PC/CH liposome mimicking a red blood cell membrane [9]	dye leakage, EYPG/EYPC (6:4, w/w) liposome mimicking gram-positive bacterial cell membrane [10]	MIC50 [11]	MIC90 [11]	resistance to the proteolytic enzyme [12]	LD50 [13]
CC(C)C[C@@H](NC(=O)[C@H](N)CCCNC(=N)N)C(=O)N[C@H](CCCNC(=N)N)C(=O)N[C@@H](C(=O)N[C@H](CCCCN)C(=O)N[C@H](CC(C)C)C(=O)N[C@H](CCCNC(=N)N)C(=O)N[C@H](CCCNC(=N)N)C(=O)N[C@H](Cc1ccc(O)cc1)C(=O)N[C@H](CC(C)C)C(=O)N[C@H](CCCNC(=N)N)C(N)=O)C(C)C [allD FP12-NH2] (H-[dR][dL][dR][dV][dK][dL][dR][dR][dY][dL][dR]-NH2; N-terminus assumed)	strong LPS binding affinity	26.6 µM	<32 µg/mL	<16 µg/mL	<0.5 µg/mL	<4 µg/mL	2 µM (≈ 3.06 µg/mL)	4 µM (≈ 6.11 µg/mL)	4 µM (≈ 6.11 µg/mL)	8 µM (≈ 12.2 µg/mL)	high dye leakage	almost no dye leakage	high dye leakage	4 µM (≈ 6.11 µg/mL)	8 µM (≈ 12.2 µg/mL)	much improved resistance	–
RLRVKLRRYLR-NH2 [FP12-NH2]	strong LPS binding affinity	0.242 µM	<8 µg/mL	<16 µg/mL	<0.5 µg/mL	<4 µg/mL	–	–	–	–	high dye leakage	almost no dye leakage	high dye leakage	–	–	–	–
CC(C)C[C@@H](NC(=O)[C@H](N)CCCCN)C(=O)N[C@H](CCCNC(=N)N)C(=O)N[C@@H](C(=O)N[C@H](CCCCN)C(=O)N[C@H](CC(C)C)C(=O)N[C@H](CCCNC(=N)N)C(=O)N[C@H](CCCNC(=N)N)C(=O)N[C@H](Cc1ccc(O)cc1)C(=O)N[C@H](CC(C)C)C(=O)N[C@H](CCCNC(=N)N)C(N)=O)C(C)C [allD FP13-NH2 (AcOH)] (H-[dK][dL][dR][dV][dK][dL][dR][dR][dY][dL][dR]-NH2; N-terminus assumed)	–	–	<32 µg/mL	<16 µg/mL	<1 µg/mL	<1 µg/mL	–	–	–	–	–	–	–	–	–	–	80 mg/kg
KLRVKLRRYLR-NH2 [FP13-NH2]	strong LPS binding affinity	118 µM	<16 µg/mL	<32 µg/mL	<1 µg/mL	<8 µg/mL	–	–	–	–	high dye leakage	almost no dye leakage	high dye leakage	–	–	–	–
